Columns and labels:
[1] = test system: LAMPU (purple deadnettle); experiment: Pre-emergence herbicidal activity, cool season; assay type: in vivo, Lamium purpureum; settings: lowest tested rate with 80% or greater inhibition; rates 300, 100, 30, 10 g/ha; about 14 days
Procedure, shortened: (§1)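 GR80 values derive from percent inhibition relative to untreated plants, read roughly 14 days after sowing and pre-emergence soil-surface treatment (compound in 50:50 acetone/water; rates typically 10, 30, 100, 300 g/ha). Warm-season weeds grew at 30/21° C day/night, cool-season ones at 18/13° C; an asterisk marks activity without reaching 80% at the highest rate.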

[2] = test system: AMARE (redroot pigweed); experiment: Pre-plant incorporated (PPI) herbicidal activity, warm season; assay type: in vivo, Amaranthus retroflexus; settings: for inhibition at 10 g/ha / inhibition at 30 g/ha / inhibition at 100 g/ha / inhibition at 300 g/ha / inhibition at 900 g/ha: Amaranthus retroflexus, PPI application, read-out: Percent inhibition AMARE; for PPI activity (GR80) AMARE: pre-plant incorporated, GR80 = lowest tested rate with 80% or greater inhibition, approx. 14 days after treating, 30/21° C.
Method: (§2) In another set of tests, the pre-plant incorporated (PPI) activity of compounds of this invention was evaluated on the same species as for the pre-emergence tests described above. In the PPI tests the following procedure, designed to simulate PPI application, was used.
(§3) A pre-prepared topsoil mixture (described above) was placed in a pot and compacted to a depth of 1.0 to 1.25 cm from the top of the pot. Seeds of each of several monocotyledonous and dicotyledonous annual plant species were placed on top of the soil. A sufficient quantity of soil to cover the seeds and level fill the pot was weighed into an open container. A known amount of the test compound was dissolved or suspended in an organic solvent and applied by spraying to this cover soil. The cover soil was thoroughly mixed to distribute the test compound throughout the cover soil, and was then applied as a cover layer over the seeds. Untreated soil was used as a cover layer for control pots. After treatment the plants were placed in a greenhouse where they received 0.64 cm of overhead irrigation. All subsequent watering consisted of a light overhead mist and/or subirrigation as needed for germination and growth. Tables 9 and 10 below relate to warm season plant species which were placed after pre-emergence treatment in a greenhouse with a 30/21° C. day/night temperature regime. Tables 11 and 12 below relates to cool season plant species placed after pre-emergence treatment in a greenhouse or growth chamber with an 18/13° C. day/night temperature regime. Only the compounds of Examples 1, 6, 8, 11, 13 and 15-20 were included in PPI tests.
(§4) Approximately 14 days after planting and treating, the plants were observed and herbicidal efficacy recorded as percent inhibition by comparison with untreated plants.

[3] = test system: SINAR (wild mustard); experiment: Pre-emergence herbicidal activity, cool season; assay type: in vivo, Sinapis arvensis; settings: lowest tested rate with 80% or greater inhibition; rates 300, 100, 30, 10 g/ha; about 14 days
Procedure, shortened: as §1

[4] = test system: PANMI (wild proso millet); experiment: Pre-plant incorporated (PPI) herbicidal activity, warm season; assay type: in vivo, Panicum miliaceum; settings: for inhibition at 10 g/ha / inhibition at 30 g/ha / inhibition at 100 g/ha / inhibition at 300 g/ha / inhibition at 900 g/ha: Panicum miliaceum, PPI application, read-out: Percent inhibition PANMI; for PPI activity GR80, PANMI: pre-plant incorporated, lowest tested rate with 80% or greater inhibition, about 14 days
Method: as §2, §3, §4

[5] = test system: GALAP (catchweed bedstraw); experiment: Pre-emergence herbicidal activity, cool season; assay type: in vivo, Galium aparine; settings: lowest tested rate with 80% or greater inhibition; rates 300, 100, 30, 10 g/ha; about 14 days
Procedure, shortened: as §1

[6] = test system: POLCO (wild buckwheat); experiment: Pre-plant incorporated (PPI) herbicidal activity, cool season; assay type: in vivo, Polygonum convolvulus; settings: pre-plant incorporated; lowest tested rate with 80% or greater inhibition; about 14 days
Method: as §2, §3, §4

[7] = test system: DATST (jimsonweed); experiment: Pre-plant incorporated (PPI) herbicidal activity, warm season; assay type: in vivo, Datura stramonium; settings: for inhibition at 10 g/ha / inhibition at 30 g/ha / inhibition at 100 g/ha / inhibition at 300 g/ha / inhibition at 900 g/ha: Datura stramonium, PPI application, read-out: Percent inhibition DATST; for PPI activity (GR80) DATST: pre-plant incorporated, GR80 = lowest tested rate with 80% or greater inhibition, approx. 14 days after treating, 30/21° C.
Method: as §2, §3, §4

[8] = test system: ALOMY (blackgrass); experiment: Pre-plant incorporated (PPI) herbicidal activity, cool season; assay type: in vivo, Alopecurus myosuroides; settings: for inhibition at 10 g/ha / inhibition at 30 g/ha / inhibition at 100 g/ha / inhibition at 300 g/ha / inhibition at 900 g/ha: Alopecurus myosuroides, weed, PPI application, read-out: Percent inhibition ALOMY; for PPI activity GR80, ALOMY: pre-plant incorporated, lowest tested rate with 80% or greater inhibition, about 14 days
Method: as §2, §3, §4

[9] = test system: SOLNI (black nightshade); experiment: Pre-emergence herbicidal activity, warm season; assay type: in vivo, Solanum nigrum; settings: GR80 = lowest tested rate (300, 100, 30, 10 g/ha) with 80% or greater inhibition; approx. 14 days after treating; 30/21° C.
Procedure, shortened: as §1

[10] = test system: SASKR (russian thistle); experiment: Pre-emergence herbicidal activity, cool season; assay type: in vivo, Salsola kali; settings: lowest tested rate with 80% or greater inhibition; rates 300, 100, 30, 10 g/ha; about 14 days
Procedure, shortened: as §1

[11] = test system: SINAR (wild mustard); experiment: Pre-plant incorporated (PPI) herbicidal activity, cool season; assay type: in vivo, Sinapis arvensis; settings: for PPI activity GR80, SINAR: pre-plant incorporated, lowest tested rate with 80% or greater inhibition, about 14 days
Method: as §2, §3, §4

[12] = test system: BROTE (downy brome); experiment: as above; assay type: in vivo, Bromus tectorum; settings: for inhibition at 10 g/ha / inhibition at 30 g/ha / inhibition at 100 g/ha / inhibition at 300 g/ha / inhibition at 900 g/ha: Bromus tectorum, weed, PPI application, read-out: Percent inhibition BROTE; for PPI activity GR80, BROTE: pre-plant incorporated, lowest tested rate with 80% or greater inhibition, about 14 days
Method: as §2, §3, §4

[13] = Brassica, weed, PPI application, read-out: Percent inhibition SINAR

Structure (SMILES): C=C(C)CC(F)(F)S(=O)(=O)c1ncn(C(=O)N(CC)CC)n1 [Example 18]
- Pre-emergence activity GR80, LAMPU [1]: 300 g/ha
- inhibition at 10 g/ha [2]: 30%
- inhibition at 30 g/ha [2]: 100%
- inhibition at 100 g/ha [2]: 100%
- inhibition at 300 g/ha [2]: 100%
- inhibition at 900 g/ha [2]: 100%
- PPI activity (GR80) AMARE [2]: 300 g/ha
- Pre-emergence activity GR80, SINAR [3]: 300 g/ha
- inhibition at 10 g/ha [4]: 0%
- inhibition at 30 g/ha [4]: 40%
- inhibition at 100 g/ha [4]: 100%
- inhibition at 300 g/ha [4]: 100%
- inhibition at 900 g/ha [4]: 100%
- PPI activity GR80, PANMI [4]: 100 g/ha
- Pre-emergence activity GR80, GALAP [5]: 300 g/ha
- PPI activity GR80, POLCO [6]: 100 g/ha
- inhibition at 10 g/ha [7]: 0%
- inhibition at 30 g/ha [7]: 0%
- inhibition at 100 g/ha [7]: 0%
- inhibition at 300 g/ha [7]: 60%
- inhibition at 900 g/ha [7]: 100%
- PPI activity (GR80) DATST [7]: 300 g/ha
- inhibition at 10 g/ha [8]: 60%
- inhibition at 30 g/ha [8]: 60%
- inhibition at 100 g/ha [8]: 30%
- inhibition at 300 g/ha [8]: 80%
- inhibition at 900 g/ha [8]: 80%
- PPI activity GR80, ALOMY [8]: 100 g/ha
- Pre-emergence activity (GR80) SOLNI [9]: 100 g/ha
- Pre-emergence activity GR80, SASKR [10]: 300 g/ha
- inhibition at 10 g/ha [11, 13]: 100%
- inhibition at 30 g/ha ([11]; Brassica, weed, PPI application, 30 g/ha, read-out: Percent inhibition SINAR): 100%
- inhibition at 100 g/ha [11, 13]: 80%
- inhibition at 300 g/ha [11, 13]: 100%
- inhibition at 900 g/ha [11, 13]: 100%
- PPI activity GR80, SINAR [11]: 10 g/ha
- inhibition at 10 g/ha [12]: 0%
- inhibition at 30 g/ha [12]: 0%
- inhibition at 100 g/ha [12]: 0%
- inhibition at 300 g/ha [12]: 20%
- inhibition at 900 g/ha [12]: 90%
- PPI activity GR80, BROTE [12]: 300 g/ha

Structure (SMILES): C=C(Br)CC(F)(F)S(=O)(=O)c1ncn(C(=O)N(CC)CC)n1 [Example 19]
- Pre-emergence activity GR80, LAMPU [1]: 30 g/ha
- inhibition at 10 g/ha [2]: 0%
- inhibition at 30 g/ha [2]: 20%
- inhibition at 100 g/ha [2]: 95%
- inhibition at 300 g/ha [2]: 95%
- inhibition at 900 g/ha [2]: 100%
- PPI activity (GR80) AMARE [2]: 100 g/ha
- Pre-emergence activity GR80, SINAR [3]: 30 g/ha
- inhibition at 10 g/ha [4]: 0%
- inhibition at 30 g/ha [4]: 60%
- inhibition at 100 g/ha [4]: 100%
- inhibition at 300 g/ha [4]: 100%
- inhibition at 900 g/ha [4]: 100%
- PPI activity GR80, PANMI [4]: 100 g/ha
- Pre-emergence activity GR80, GALAP [5]: 300 g/ha
- PPI activity GR80, POLCO [6]: * (activity observed, at least at highest rate, but <80% inhibition)
- inhibition at 10 g/ha [7]: 0%
- inhibition at 30 g/ha [7]: 0%
- inhibition at 100 g/ha [7]: 0%
- inhibition at 300 g/ha [7]: 90%
- inhibition at 900 g/ha [7]: 99%
- PPI activity (GR80) DATST [7]: 300 g/ha
- inhibition at 10 g/ha [8]: 60%
- inhibition at 30 g/ha [8]: 50%
- inhibition at 100 g/ha [8]: 70%
- inhibition at 300 g/ha [8]: 100%
- inhibition at 900 g/ha [8]: 100%
- PPI activity GR80, ALOMY [8]: 30 g/ha
- Pre-emergence activity (GR80) SOLNI [9]: 300 g/ha
- Pre-emergence activity GR80, SASKR [10]: 100 g/ha
- inhibition at 10 g/ha [11, 13]: 100%
- inhibition at 100 g/ha [11, 13]: 100%
- inhibition at 300 g/ha [11, 13]: 100%
- inhibition at 900 g/ha [11, 13]: 100%
- PPI activity GR80, SINAR [11]: 300 g/ha
- inhibition at 10 g/ha [12]: 0%
- inhibition at 30 g/ha [12]: 20%
- inhibition at 100 g/ha [12]: 20%
- inhibition at 300 g/ha [12]: 60%
- inhibition at 900 g/ha [12]: 95%
- PPI activity GR80, BROTE [12]: 300 g/ha

Reference: patent US6461997B1, “Triazole sulfones having herbicidal activity” (Monsanto Technology LLC, priority 1999, dated 2002)
